Results published in patent publication US20240165244A1 (Prelude Therapeutics Incorporated, priority 2022, published 2024).

Key:
SMARCA4 = biological target: T1, SMARCA4 (Homo sapiens, UniProt P51532); experiment: SMARCA4 HiBiT degradation assay in HeLa cells; type: cell-based; details: 18 hours, highest concentration 10 μM
T1 construct: SMARCA4-HiBiT knock-in Hela monoclonal cell (CS3023226); host or cells: HeLa monoclonal cells with heterozygous HiBiT knock-in at the endogenous SMARCA4 locus
Protocol: (§1) SMARCA2 HiBiT and SMARCA4 HiBiT Degradation Assay
HiBiT peptide knock-in of SMARCA2 in LgBiT expressing HEK293T cells was performed by CRISPR-mediated tagging system as described Promega. […] SMARCA2-HiBiT knock-in Hela monoclonal cell (CS302366) and SMARCA4-HiBiT knock-in Hela monoclonal cell (CS3023226) were purchased from Promega.
(§2) SMARCA2 HiBiT and SMARCA4 HiBiT Degradation Assay in HeLa Cells
Remove appropriate volume of resuspended cells from culture flask to accommodate 2500 cells/well @ 20 μL/well. […] Spin down at 1000 rpm for 5 min using tabletop centrifuge (SPINCHRON 15, Beckman).
Dispense test compounds onto plates using digital liquid dispenser (D300E, Tecan). Incubate plates in humidified tissue culture incubator @37° C. for 18 hours. […] Raw data files and compound information reports are swept into centralized data lake and deconvoluted using automated scripts designed by TetraScience, Inc. Data analysis, curve-fitting and reporting done in Dotmatics Informatics Suite using Screening Ultra module.

SMARCA2 = biological target: T2, SMARCA2 (Homo sapiens, UniProt P51531); experiment: SMARCA2 HiBiT degradation assay in HeLa cells; type: cell-based; details: 18 hours, highest concentration 10 μM
T2 construct: SMARCA2-HiBiT knock-in Hela monoclonal cell (CS302366); host or cells: HeLa monoclonal cells with heterozygous HiBiT knock-in at the endogenous SMARCA2 locus
T2 sequence (P51531 whole entry): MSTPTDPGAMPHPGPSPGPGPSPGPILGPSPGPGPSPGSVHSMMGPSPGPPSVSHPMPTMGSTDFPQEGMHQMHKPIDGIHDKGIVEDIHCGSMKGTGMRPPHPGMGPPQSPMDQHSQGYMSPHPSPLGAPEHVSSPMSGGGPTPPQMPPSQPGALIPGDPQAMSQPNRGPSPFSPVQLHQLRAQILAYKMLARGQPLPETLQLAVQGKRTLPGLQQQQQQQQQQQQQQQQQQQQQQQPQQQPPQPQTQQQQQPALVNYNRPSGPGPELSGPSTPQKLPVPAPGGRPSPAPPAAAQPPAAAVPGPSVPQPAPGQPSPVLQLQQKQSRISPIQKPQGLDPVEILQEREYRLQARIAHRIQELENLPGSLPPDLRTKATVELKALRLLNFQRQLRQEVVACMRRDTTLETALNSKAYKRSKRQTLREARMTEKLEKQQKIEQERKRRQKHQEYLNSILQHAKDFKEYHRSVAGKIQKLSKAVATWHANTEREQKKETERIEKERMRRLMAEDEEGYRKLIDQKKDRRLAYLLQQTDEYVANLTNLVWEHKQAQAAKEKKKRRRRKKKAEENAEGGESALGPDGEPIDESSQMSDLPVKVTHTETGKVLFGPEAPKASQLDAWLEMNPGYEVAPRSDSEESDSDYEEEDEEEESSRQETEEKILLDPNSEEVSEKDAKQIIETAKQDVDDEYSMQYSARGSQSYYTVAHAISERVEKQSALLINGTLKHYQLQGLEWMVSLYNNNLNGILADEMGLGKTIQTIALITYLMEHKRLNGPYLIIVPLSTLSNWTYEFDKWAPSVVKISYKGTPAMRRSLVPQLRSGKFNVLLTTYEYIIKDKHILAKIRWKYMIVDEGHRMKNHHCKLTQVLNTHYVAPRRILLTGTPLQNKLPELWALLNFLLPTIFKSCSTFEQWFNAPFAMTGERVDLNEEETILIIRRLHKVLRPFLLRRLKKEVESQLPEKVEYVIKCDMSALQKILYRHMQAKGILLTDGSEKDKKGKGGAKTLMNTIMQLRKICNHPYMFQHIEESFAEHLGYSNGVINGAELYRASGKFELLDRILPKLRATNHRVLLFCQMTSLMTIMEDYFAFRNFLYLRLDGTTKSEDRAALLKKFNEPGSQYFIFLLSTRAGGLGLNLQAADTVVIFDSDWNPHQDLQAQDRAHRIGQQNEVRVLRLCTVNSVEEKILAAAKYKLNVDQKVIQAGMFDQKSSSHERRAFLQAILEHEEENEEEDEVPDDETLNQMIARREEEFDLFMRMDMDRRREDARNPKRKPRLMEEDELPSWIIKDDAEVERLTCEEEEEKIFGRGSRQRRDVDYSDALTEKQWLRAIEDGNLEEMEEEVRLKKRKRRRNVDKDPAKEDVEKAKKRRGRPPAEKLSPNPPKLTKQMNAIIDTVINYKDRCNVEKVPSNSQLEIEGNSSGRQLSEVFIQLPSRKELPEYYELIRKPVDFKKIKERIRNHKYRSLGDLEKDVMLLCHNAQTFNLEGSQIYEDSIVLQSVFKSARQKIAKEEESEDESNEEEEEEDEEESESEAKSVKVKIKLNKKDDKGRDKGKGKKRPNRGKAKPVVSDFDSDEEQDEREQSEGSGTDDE
Protocol: as §1
HiBiT peptide knock-in of SMARCA2 in LgBiT expressing HEK293T cells was performed by CRISPR-mediated tagging system as described Promega. The homozygous HiBiT knock-in on c-terminus SMARCA2 was confirmed by sanger sequence. SMARCA2-HiBiT knock-in Hela monoclonal cell (CS302366) and SMARCA4-HiBiT knock-in Hela monoclonal cell (CS3023226) were purchased from Promega. The heterozygous HiBiT-knock-in was confirmed by sanger sequence in both SMARCA2-HiBiT and SMARCA4-HiBiT monoclonal cells.
as §2
Dispense 10 ul aliquot of prepared Hela-SMARCA2-HiBiT or Hela-SMARCA4-HiBiT cells (1:1 ratio of cells:Trypan Blue (#1450013, Bio-Rad)) onto cell counting slide (#145-0011, Bio-Rad) and obtain cell density and cell viability using cell counter (TC20, Bio-Rad). Remove appropriate volume of resuspended cells from culture flask to accommodate 2500 cells/well @ 20 μL/well. Transfer Hela-HiBiT cells to 50 mL conical (#430290, Corning). Spin down at 1000 rpm for 5 min using tabletop centrifuge (SPINCHRON 15, Beckman). Discard supernatant and resuspend cell pellet in modified EMEM (#30-2003, ATCC) cell culture media containing 10% FBS (F2422-500ML, Sigma), and 1× Penicillin/Streptomycin ([…]) (30-002-CI, Corning) to a cell density of 125,000 cells/mL. Dispense 20 μLof resuspended Hela-HiBit cells per well in 384-well TC treated plate (#12-565-343, Thermo Scientific) using standard cassette (#50950372, Thermo Scientific) on Multidrop Combi (#5840310, Thermo Scientific) inside laminar flow cabinet.
Compounds were dissolved in DMSO to make 10 mM stock and 3-fold series dilutions were further conducted keeping the highest concentration 10 μM. Dispense test compounds onto plates using digital liquid dispenser (D300E, Tecan). Incubate plates in humidified tissue culture incubator @37° C. for 18 hours. Add 20 μL of prepared Nano-Glo® HiBiT Lytic detection buffer (N3050, Promega) to each well of 384-well plate using small tube cassette (#24073295, Thermo Scientific) on Multidrop Combi, incubate @ RT for 30-60 min. Read plates on microplate reader (Envision 2105, PerkinElmer) using 384 well Ultra-Sensitive luminescence mode. Raw data files and compound information reports are swept into centralized data lake and deconvoluted using automated scripts designed by TetraScience, Inc. Data analysis, curve-fitting and reporting done in Dotmatics Informatics Suite using Screening Ultra module.

T1 sequence (P51532 whole entry): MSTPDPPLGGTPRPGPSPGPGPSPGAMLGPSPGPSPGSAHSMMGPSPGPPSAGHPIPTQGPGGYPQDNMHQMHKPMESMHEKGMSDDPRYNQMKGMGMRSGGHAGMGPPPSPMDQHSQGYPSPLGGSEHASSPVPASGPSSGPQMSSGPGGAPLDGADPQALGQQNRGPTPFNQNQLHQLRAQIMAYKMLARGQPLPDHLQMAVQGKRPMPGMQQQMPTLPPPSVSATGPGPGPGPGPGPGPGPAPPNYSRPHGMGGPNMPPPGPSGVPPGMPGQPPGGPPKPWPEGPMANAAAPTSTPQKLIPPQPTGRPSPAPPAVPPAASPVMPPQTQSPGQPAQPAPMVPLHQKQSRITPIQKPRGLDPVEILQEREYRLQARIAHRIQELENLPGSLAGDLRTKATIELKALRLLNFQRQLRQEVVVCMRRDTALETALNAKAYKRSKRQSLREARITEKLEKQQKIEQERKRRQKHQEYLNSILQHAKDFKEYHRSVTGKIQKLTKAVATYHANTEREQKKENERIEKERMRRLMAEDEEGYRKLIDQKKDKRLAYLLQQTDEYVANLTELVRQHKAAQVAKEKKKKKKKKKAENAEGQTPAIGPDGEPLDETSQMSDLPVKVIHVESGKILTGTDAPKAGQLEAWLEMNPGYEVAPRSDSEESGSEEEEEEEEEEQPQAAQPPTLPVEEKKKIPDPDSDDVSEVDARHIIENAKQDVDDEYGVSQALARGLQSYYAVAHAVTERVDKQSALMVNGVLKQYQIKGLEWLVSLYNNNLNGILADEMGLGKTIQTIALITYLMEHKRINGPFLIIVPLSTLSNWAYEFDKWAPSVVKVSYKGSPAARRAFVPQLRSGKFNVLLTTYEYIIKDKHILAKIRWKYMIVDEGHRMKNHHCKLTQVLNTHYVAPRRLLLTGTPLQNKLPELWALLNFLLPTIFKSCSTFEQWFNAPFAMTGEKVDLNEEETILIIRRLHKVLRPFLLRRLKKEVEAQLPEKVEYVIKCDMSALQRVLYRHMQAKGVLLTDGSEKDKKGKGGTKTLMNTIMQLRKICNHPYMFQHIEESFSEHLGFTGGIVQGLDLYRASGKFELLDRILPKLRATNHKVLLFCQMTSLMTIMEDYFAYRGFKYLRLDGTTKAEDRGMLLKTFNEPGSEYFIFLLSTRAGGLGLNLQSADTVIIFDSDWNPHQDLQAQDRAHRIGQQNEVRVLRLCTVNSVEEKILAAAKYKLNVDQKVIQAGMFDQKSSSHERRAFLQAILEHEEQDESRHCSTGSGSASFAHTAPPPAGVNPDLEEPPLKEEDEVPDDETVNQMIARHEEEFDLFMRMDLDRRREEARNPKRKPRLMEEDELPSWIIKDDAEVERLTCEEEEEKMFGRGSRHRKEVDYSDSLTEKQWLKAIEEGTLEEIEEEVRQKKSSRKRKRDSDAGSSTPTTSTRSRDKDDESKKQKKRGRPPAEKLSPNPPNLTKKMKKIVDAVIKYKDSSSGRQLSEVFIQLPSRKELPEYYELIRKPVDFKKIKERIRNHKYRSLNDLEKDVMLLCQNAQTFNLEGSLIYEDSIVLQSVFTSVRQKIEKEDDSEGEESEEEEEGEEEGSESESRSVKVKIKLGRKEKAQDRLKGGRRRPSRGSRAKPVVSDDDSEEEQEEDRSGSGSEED

`CC[C@@]12CNc3nnc(-c4cccc(F)c4O)cc3N1C[C@H](Oc1nc(C)c(CN3CCN(c4ccc5c(c4)C(=O)N([C@H]4CCC(=O)NC4=O)C5)CC3)cc1C#N)C2` [Example 59, 5-((4-(2-((S)-2,6-dioxopiperidin-3-yl)-3-oxoisoindolin-5-yl)piperazin-1-yl)methyl)-2-(((6aR,8R)-6a-ethyl-2-(3-fluoro-2-hydroxyphenyl)-5,6,6a,7,8,9-hexahydropyrrolo[1′,2′:4,5]pyrazino[2,3-c]pyridazin-8-yl)oxy)-6-methylnicotinonitrile] showed a DC50 (SMARCA4) of less than 0.1 µM, a Dmax (SMARCA4) of 50 to 75% and a DC50 (SMARCA2) of less than 0.1 µM. The Dmax (SMARCA2) was greater than 75%.
`Cc1cc(CN2CCN(c3ccc4c(c3)C(=O)N([C@H]3CCC(=O)NC3=O)C4)CC2)cnc1O[C@H]1CN2c3cc(-c4cccc(F)c4O)nnc3NC[C@]2(C)C1` [Example 83, (S)-3-(6-(4-((6-(((6aS,8R)-2-(3-fluoro-2-hydroxyphenyl)-6a-methyl-5,6,6a,7,8,9-hexahydropyrrolo[1′,2′:4,5]pyrazino[2,3-c]pyridazin-8-yl)oxy)-5-methylpyridin-3-yl)methyl)piperazin-1-yl)-1-oxoisoindolin-2-yl)piperidine-2,6-dione] was tested, and the DC50 (SMARCA4) was less than 0.1 µM, the Dmax (SMARCA4) was greater than 75% and the DC50 (SMARCA2) was less than 0.1 µM. The Dmax (SMARCA2) was greater than 75%.
Compound `CC[C@@]12CNc3nnc(-c4cccc(Cl)c4O)cc3N1C[C@H](Oc1cc(C)c(CN3CCC(c4ccc5c(c4)C(=O)N([C@H]4CCC(=O)NC4=O)C5)CC3)cn1)C2` [Example 100, (S)-3-(6-(1-((6-(((6aR,8R)-2-(3-chloro-2-hydroxyphenyl)-6a-ethyl-5,6,6a,7,8,9-hexahydropyrrolo[1′,2′:4,5]pyrazino[2,3-c]pyridazin-8-yl)oxy)-4-methylpyridin-3-yl)methyl)piperidin-4-yl)-1-oxoisoindolin-2-yl)piperidine-2,6-dione] has a DC50 (SMARCA4) of 0.1 to 1 µM, a Dmax (SMARCA4) of less than 50% and a DC50 (SMARCA2) of less than 0.1 µM. For the same compound, the Dmax (SMARCA2) was greater than 75%.
In the case of `Cc1cc(O[C@@H]2C[C@@H]3CNc4nnc(-c5cc(F)cc(F)c5O)cc4N3C2)ncc1CN1CCC(c2ccc3c(c2)C(=O)N([C@H]2CCC(=O)NC2=O)C3)CC1` [Example 29, (S)-3-(6-(1-((6-(((6aR,8R)-2-(3,5-difluoro-2-hydroxyphenyl)-5,6,6a,7,8,9-hexahydropyrrolo[1′,2′:4,5]pyrazino[2,3-c]pyridazin-8-yl)oxy)-4-methylpyridin-3-yl)methyl)piperidin-4-yl)-1-oxoisoindolin-2-yl)piperidine-2,6-dione], the DC50 (SMARCA4) is reported as less than 0.1 µM, the Dmax (SMARCA4) is reported as 50 to 75% and the DC50 (SMARCA2) is reported as less than 0.1 µM. For the same compound, the Dmax (SMARCA2) was greater than 75%.
`Cc1cc(O[C@@H]2C[C@@H]3CNc4nnc(-c5cccc(C)c5O)cc4N3C2)ccc1CN1CCN(c2ccc3c(c2)C(=O)N(C2CCC(=O)NC2=O)C3)CC1` (stereo partly drawn) [Example 20, 3-(6-(4-(4-(((6aR,8R)-2-(2-hydroxy-3-methylphenyl)-5,6,6a,7,8,9-hexahydropyrrolo[1′,2′:4,5]pyrazino[2,3-c]pyridazin-8-yl)oxy)-2-methylbenzyl)piperazin-1-yl)-1-oxoisoindolin-2-yl)piperidine-2,6-dione] showed a DC50 (SMARCA4) greater than 1 µM, a Dmax (SMARCA4) of less than 50% and a DC50 (SMARCA2) of less than 0.1 µM. The Dmax (SMARCA2) was greater than 75%.
For `Cc1nc(CN2CCC(c3ccc4c(c3)C(=O)N([C@H]3CCC(=O)NC3=O)C4)CC2)cnc1O[C@H]1CN2c3cc(-c4cccc(F)c4O)nnc3NC[C@]2(C(F)F)C1` [Example 91, (S)-3-(6-(1-((5-(((6aS,8R)-6a-(difluoromethyl)-2-(3-fluoro-2-hydroxyphenyl)-5,6,6a,7,8,9-hexahydropyrrolo[1′,2′:4,5]pyrazino[2,3-c]pyridazin-8-yl)oxy)-6-methylpyrazin-2-yl)methyl)piperidin-4-yl)-1-oxoisoindolin-2-yl)piperidine-2,6-dione], the DC50 (SMARCA4) was less than 0.1 µM, the Dmax (SMARCA4) was 50 to 75% and the DC50 (SMARCA2) was less than 0.1 µM. For the same compound, the Dmax (SMARCA2) was greater than 75%.
Compound `CC[C@@]12CNc3nnc(-c4cccc(F)c4O)cc3N1C[C@H](Sc1cc(C)c(CN3CCN(c4ccc5c(c4)C(=O)N([C@H]4CCC(=O)NC4=O)C5)CC3)cn1)C2` [Example 60, 3-(6-(4-((6-(((6aR,8R)-6a-ethyl-2-(3-fluoro-2-hydroxyphenyl)-5,6,6a,7,8,9-hexahydropyrrolo[1′,2′:4,5]pyrazino[2,3-c]pyridazin-8-yl)thio)-4-methylpyridin-3-yl)methyl)piperazin-1-yl)-1-oxoisoindolin-2-yl)piperidine-2,6-dione] has a DC50 (SMARCA4) of less than 0.1 µM, a Dmax (SMARCA4) of 50 to 75% and a DC50 (SMARCA2) of less than 0.1 µM. The Dmax (SMARCA2) was greater than 75%.
For `CC[C@@]12CNc3nnc(-c4cc(F)cc(F)c4O)cc3N1C[C@H](Oc1ccc(CN3CCN(c4ccc5c(c4)C(=O)N(C4CCC(=O)NC4=O)C5)CC3)cn1)C2` (stereo partly drawn) [Example 63, 3-(6-(4-((6-(((6aR,8R)-2-(3,5-difluoro-2-hydroxyphenyl)-6a-ethyl-5,6,6a,7,8,9-hexahydropyrrolo[1′,2′:4,5]pyrazino[2,3-c]pyridazin-8-yl)oxy)pyridin-3-yl)methyl)piperazin-1-yl)-1-oxoisoindolin-2-yl)piperidine-2,6-dione], the DC50 (SMARCA4) was less than 0.1 µM, the Dmax (SMARCA4) was greater than 75% and the DC50 (SMARCA2) was less than 0.1 µM. It also gave a Dmax (SMARCA2) greater than 75%.
With `O=C1CCC(N2Cc3ccc(N4CCN(Cc5cnc(O[C@H]6CN7c8cc(-c9cccc(F)c9O)nnc8NC[C@@]7(C(F)F)C6)c(Cl)c5)CC4)cc3C2=O)C(=O)N1` (stereo partly drawn) [Example 85, 3-(6-(4-((5-chloro-6-(((6aR,8R)-6a-(difluoromethyl)-2-(3-fluoro-2-hydroxyphenyl)-5,6,6a,7,8,9-hexahydropyrrolo[1′,2′:4,5]pyrazino[2,3-c]pyridazin-8-yl)oxy)pyridin-3-yl)methyl)piperazin-1-yl)-1-oxoisoindolin-2-yl)piperidine-2,6-dione] the DC50 (SMARCA4) was less than 0.1 µM, the Dmax (SMARCA4) was 50 to 75% and the DC50 (SMARCA2) was less than 0.1 µM. The Dmax (SMARCA2) was greater than 75%.
With `O=C1CCC(N2Cc3ccc(N4CCN(Cc5cnc(O[C@H]6CN7c8cc(-c9cccc(F)c9O)nnc8NC[C@]7(C(F)F)C6)cn5)CC4)cc3C2=O)C(=O)N1` (stereo partly drawn) [Example 52, 3-(6-(4-((5-(((6aS,8R)-6a-(difluoromethyl)-2-(3-fluoro-2-hydroxyphenyl)-5,6,6a,7,8,9-hexahydropyrrolo[1′,2′:4,5]pyrazino[2,3-c]pyridazin-8-yl)oxy)pyrazin-2-yl)methyl)piperazin-1-yl)1-oxoisoindolin-2-yl)piperidine-2,6-dione] the DC50 (SMARCA4) was greater than 1 µM, the Dmax (SMARCA4) was less than 50% and the DC50 (SMARCA2) was less than 0.1 µM. The Dmax (SMARCA2) was greater than 75%.
`CC[C@@]12CNc3nnc(-c4cccc(F)c4O)cc3N1C[C@H](Oc1ncc(CN3CCN(c4ccc5c(c4)C(=O)N(C4CCC(=O)NC4=O)C5)CC3)c(C)c1F)C2` (stereo partly drawn) [Example 61, 3-(6-(4-((6-(((6aR,8R)-6a-ethyl-2-(3-fluoro-2-hydroxyphenyl)-5,6,6a,7,8,9-hexahydropyrrolo[1′,2′:4,5]pyrazino[2,3-c]pyridazin-8-yl)oxy)-5-fluoro-4-methylpyridin-3-yl)methyl)piperazin-1-yl)-1-oxoisoindolin-2-yl)piperidine-2,6-dione] was tested, and the DC50 (SMARCA4) was less than 0.1 µM, the Dmax (SMARCA4) was 50 to 75% and the DC50 (SMARCA2) was less than 0.1 µM. It also gave a Dmax (SMARCA2) greater than 75%.
Compound `O=C1CCC(N2Cc3ccc(N4CCN(Cc5ccc(O[C@@H]6C[C@@H]7CNc8nnc(-c9cc(F)cc(F)c9O)cc8N7C6)cc5OC(F)(F)F)CC4)cc3C2=O)C(=O)N1` (stereo partly drawn) [Example 24, 3-(6-(4-(4-(((6aR,8R)-2-(3,5-difluoro-2-hydroxyphenyl)-5,6,6a,7,8,9-hexahydropyrrolo[1′,2′:4,5]pyrazino[2,3-c]pyridazin-8-yl)oxy)-2-(trifluoromethoxy)benzyl)piperazin-1-yl)-1-oxoisoindolin-2-yl)piperidine-2,6-dione] has a DC50 (SMARCA4) greater than 1 µM, a Dmax (SMARCA4) of less than 50% and a DC50 (SMARCA2) of less than 0.1 µM. The Dmax (SMARCA2) was 50 to 75%.
